Here are results for 23 compounds from PubChem BioAssay AID256 (DTP/NCI, 2004).

The assay has as its system CD2F1 mice, L1210 leukemia ip, survival T/C. Put plainly: NCI In Vivo Anticancer Drug Screen. Data for tumor model L1210 Leukemia (intraperitoneal) in CD2F1 (CDF1) mice. As to conditions: higher = longer survival. In outline: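 In this screen, transplantable tumors were grown in mice given either the compound or its vehicle. Results were expressed as the treated measurement relative to the control measurement.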

Setting [1] is: endpoint: mean survival time, dose: 100.0 mg/kg/injection, schedule: Q01DX001 (ip), vehicle: saline.
The mark [2] stands for this setting: endpoint: mean survival time, dose: 200.0 mg/kg/injection, schedule: Q01DX001 (ip), vehicle: saline.
Setting [3] is: endpoint: mean survival time, dose: 400.0 mg/kg/injection, schedule: Q01DX001 (ip), vehicle: saline.
The mark [4] stands for this setting: endpoint: mean survival time, dose: 12.5 mg/kg/injection, schedule: Q04DX003 (ip), vehicle: saline.
Setting [5] is: endpoint: mean survival time, dose: 25.0 mg/kg/injection, schedule: Q04DX003 (ip), vehicle: saline.
Where [6] appears, read: endpoint: mean survival time, dose: 12.5 mg/kg/injection, schedule: Q01DX009 (ip), vehicle: saline with Tween-80.
[7] abbreviates: endpoint: mean survival time, dose: 25.0 mg/kg/injection, schedule: Q01DX009 (ip), vehicle: saline with Tween-80.
[8] abbreviates: endpoint: mean survival time, dose: 50.0 mg/kg/injection, schedule: Q01DX009 (ip), vehicle: saline with Tween-80.
Setting [9] is: endpoint: mean survival time, dose: 100.0 mg/kg/injection, schedule: Q01DX009 (ip), vehicle: saline with Tween-80.
The mark [10] stands for this setting: endpoint: mean survival time, dose: 100.0 mg/kg/injection, schedule: Q04DX003 (ip), vehicle: saline with Tween-80.
[11] abbreviates: endpoint: mean survival time, dose: 200.0 mg/kg/injection, schedule: Q01DX009 (ip), vehicle: saline with Tween-80.
[12] abbreviates: endpoint: mean survival time, dose: 200.0 mg/kg/injection, schedule: Q04DX003 (ip), vehicle: saline with Tween-80.
Setting [13] is: endpoint: mean survival time, dose: 12.5 mg/kg/injection, schedule: Q01DX009 (ip), vehicle: Klucel (hydroxypropylcellulose) (HPC).
Setting [14] is: endpoint: mean survival time, dose: 25.0 mg/kg/injection, schedule: Q01DX009 (ip), vehicle: Klucel (hydroxypropylcellulose) (HPC).
Where [15] appears, read: endpoint: mean survival time, dose: 100.0 mg/kg/injection, schedule: Q04DX002 (ip), vehicle: saline with Tween-80.
The mark [16] stands for this setting: endpoint: mean survival time, dose: 200.0 mg/kg/injection, schedule: Q04DX002 (ip), vehicle: saline with Tween-80.
[17] abbreviates: endpoint: mean survival time, dose: 400.0 mg/kg/injection, schedule: Q04DX002 (ip), vehicle: saline with Tween-80.
The mark [18] stands for this setting: endpoint: mean survival time, dose: 400.0 mg/kg/injection, schedule: Q04DX003 (ip), vehicle: saline with Tween-80.

Values joined by “and” are separate entries in the source; they are usually repeats but may differ in a detail not shown here. Equal values may be shown once. Toxic doses and inconclusive results are not listed.

As to `Cc1cccc(C)c1N1C(N)=NC(N)=NC1(C)C`, the T/C under setting [1] was 101 % of control, the T/C under setting [2] is 93 % of control and the T/C under setting [3] was 93 % of control.

Regarding `C=CCCCCCCCCC(=O)NCC[N+](C)(C)C`, the T/C (endpoint: mean survival time, dose: 6.25 mg/kg/injection, schedule: Q01DX009 (ip), vehicle: saline) was 104 % of control; the T/C (endpoint: mean survival time, dose: 6.25 mg/kg/injection, schedule: Q04DX003 (ip), vehicle: saline) was 96 % of control; the T/C (endpoint: mean survival time, dose: 12.5 mg/kg/injection, schedule: Q01DX009 (ip), vehicle: saline) is 101 % of control; the T/C under setting [4] was 97 % of control; the T/C (endpoint: mean survival time, dose: 25.0 mg/kg/injection, schedule: Q01DX009 (ip), vehicle: saline) is 106 % of control; the T/C under setting [5] was 102 % of control.

For the compound `C1=CCOCOC1`, the T/C was 106 % of control under setting [6]; 96 % of control under setting [7]; 114 % of control and 102 % of control under setting [8]; 100 % of control and 103 % of control under setting [9]; 100 % of control under setting [10]; 106 % of control under setting [11]. Further, under setting [12], the T/C is 118 % of control.

With `CC[N+](C)(CC)Cc1cc(C(C)=O)c(C)o1`, the T/C is, setting by setting: (endpoint: mean survival time, dose: 6.25 mg/kg/injection, schedule: Q04DX002 (ip), vehicle: saline) 98 % of control; (endpoint: mean survival time, dose: 12.5 mg/kg/injection, schedule: Q04DX002 (ip), vehicle: saline) 98 % of control; (endpoint: mean survival time, dose: 25.0 mg/kg/injection, schedule: Q04DX002 (ip), vehicle: saline) 102 % of control; (endpoint: mean survival time, dose: 50.0 mg/kg/injection, schedule: Q04DX002 (ip), vehicle: saline) 91 % of control; (endpoint: median survival time, dose: 50.0 mg/kg/injection, schedule: Q04DX002 (ip), vehicle: saline) 100 % of control.

`COc1cc(/C=N\NC(=O)CC#N)cc(OC)c1OC`: the T/C was 94 % of control under setting [10] and 98 % of control under setting [12].

On to `O=C(NNc1ccccc1)c1ccccc1`, for which the T/C reads like this: under setting [13], 110 % of control; under setting [14], 105 % of control; (endpoint: mean survival time, dose: 50.0 mg/kg/injection, schedule: Q01DX009 (ip), vehicle: Klucel (hydroxypropylcellulose) (HPC)) 106 % of control; (endpoint: mean survival time, dose: 75.0 mg/kg/injection, schedule: Q01DX009 (ip), vehicle: saline) 96 % of control; under setting [15], 110 % of control; (endpoint: mean survival time, dose: 150.0 mg/kg/injection, schedule: Q01DX009 (ip), vehicle: saline) 97 % of control. In addition, the T/C under setting [16] was 100 % of control; the T/C (endpoint: mean survival time, dose: 300.0 mg/kg/injection, schedule: Q01DX009 (ip), vehicle: saline) is 98 % of control; the T/C under setting [17] is 110 % of control.

In the case of `Nc1nc[nH]c(=O)c1NC(=O)c1cccc([N+](=O)[O-])c1`, the T/C (endpoint: mean survival time, dose: 50.0 mg/kg/injection, schedule: Q04DX003 (ip), vehicle: saline with Tween-80) is 101 % of control and 111 % of control; the T/C under setting [15] is 96 % of control and 109 % of control; the T/C under setting [16] is 92 % of control and 104 % of control; the T/C under setting [17] is 114 % of control and 96 % of control.

Take `Nc1ccc(N2CCNCC2)cc1`: the T/C by setting is: under setting [10], 104 % of control; under setting [12], 101 % of control.

As to `CN1CCN(Cc2cn(C3CC(O)C(CO)O3)c(=O)[nH]c2=O)CC1` (stereo unspecified), the T/C is 96 % of control (endpoint: mean survival time, dose: 12.5 mg/kg/injection, schedule: Q01DX005 (ip), vehicle: water); 93 % of control (endpoint: mean survival time, dose: 25.0 mg/kg/injection, schedule: Q01DX005 (ip), vehicle: water); 91 % of control (endpoint: mean survival time, dose: 50.0 mg/kg/injection, schedule: Q01DX005 (ip), vehicle: water); 95 % of control (endpoint: mean survival time, dose: 100.0 mg/kg/injection, schedule: Q01DX005 (ip), vehicle: water); 90 % of control (endpoint: mean survival time, dose: 200.0 mg/kg/injection, schedule: Q01DX005 (ip), vehicle: water).

Turning to `CC(C)(C)c1nc2ccccc2p1-c1ccccc1` (stereo unspecified), the T/C by setting is: (endpoint: mean survival time, dose: 100.0 mg/kg/injection, schedule: Q01DX001 (ip), vehicle: other) 98 % of control; (endpoint: mean survival time, dose: 200.0 mg/kg/injection, schedule: Q01DX001 (ip), vehicle: other) 91 % of control; (endpoint: mean survival time, dose: 400.0 mg/kg/injection, schedule: Q01DX001 (ip), vehicle: other) 95 % of control.

Consider `CCC(C)C(C(=O)OCC[N+](C)(CC)CC)c1ccc(C)c(C)c1` (stereo unspecified), for which the T/C runs as follows: under setting [4], 93 % of control; under setting [5], 101 % of control; (endpoint: mean survival time, dose: 50.0 mg/kg/injection, schedule: Q04DX003 (ip), vehicle: saline) 97 % of control.

As for `CO[C@@]12[C@@H]3N[C@@H]3CN1C1=C(C(=O)C(N3CCCC3)=C(C)C1=O)[C@@H]2COC(N)=O`, the T/C (endpoint: median survival time, dose: 3.12 mg/kg/injection, schedule: Q01DX001 (ip), vehicle: saline with Tween-80) is 165 % of control; the T/C (endpoint: median survival time, dose: 6.26 mg/kg/injection, schedule: Q01DX001 (ip), vehicle: saline with Tween-80) was 151 % of control; the T/C (endpoint: median survival time, dose: 12.0 mg/kg/injection, schedule: Q01DX001 (ip), vehicle: saline with Tween-80) was 152 % of control and 197 % of control; the T/C (endpoint: median survival time, dose: 12.5 mg/kg/injection, schedule: Q01DX001 (ip), vehicle: saline with Tween-80) was 370 % of control; the T/C (endpoint: median survival time, dose: 24.0 mg/kg/injection, schedule: Q01DX001 (ip), vehicle: saline with Tween-80) is 171 % of control and 326 % of control; the T/C (endpoint: median survival time, dose: 25.0 mg/kg/injection, schedule: Q01DX001 (ip), vehicle: saline with Tween-80) is 111 % of control. Moreover, where the note is “endpoint: median survival time, dose: 50.0 mg/kg/injection, schedule: Q01DX001 (ip), vehicle: saline with Tween-80”, the T/C is 91 % of control.

Take `Clc1cc(Cl)c(C[N+]23CN4CN(CN(C4)C2)C3)cc1Cl`: the T/C under setting [6] is 104 % of control; the T/C under setting [7] was 98 % of control; the T/C under setting [8] is 92 % of control and 109 % of control; the T/C under setting [9] is 104 % of control and 112 % of control; the T/C under setting [10] was 106 % of control; the T/C under setting [11] is 108 % of control. For the same compound, the T/C under setting [12] is 104 % of control.

Regarding `CC1SC(=Nc2ccc(S(N)(=O)=O)cc2)NC1=O` (stereo unspecified), the T/C (endpoint: mean survival time, dose: 50.0 mg/kg/injection, schedule: Q04DX002 (ip), vehicle: saline with Tween-80) was 105 % of control; the T/C under setting [15] is 105 % of control; the T/C (endpoint: mean survival time, dose: 200.0 mg/kg/injection, schedule: Q01DX001 (ip), vehicle: saline with Tween-80) is 89 % of control; the T/C under setting [16] is 102 % of control.

`CCCCCCCCC[n+]1ccc(C#N)cc1`: the T/C reads like this: (endpoint: mean survival time, dose: 9.38 mg/kg/injection, schedule: Q01DX001 (ip), vehicle: other) 103 % of control; (endpoint: mean survival time, dose: 18.75 mg/kg/injection, schedule: Q01DX001 (ip), vehicle: other) 101 % of control; (endpoint: mean survival time, dose: 37.5 mg/kg/injection, schedule: Q01DX001 (ip), vehicle: other) 103 % of control.

On to `O=c1nc(-c2ccccc2)c(-c2ccccc2)n[nH]1`, for which the T/C was 97 % of control (endpoint: mean survival time, dose: 100.0 mg/kg/injection, schedule: Q04DX003 (ip), vehicle: saline) and 94 % of control (endpoint: mean survival time, dose: 200.0 mg/kg/injection, schedule: Q04DX003 (ip), vehicle: saline).

On to `Cc1ccc(-c2noc(C)n2)cc1`, for which the T/C is 103 % of control under setting [1], 105 % of control under setting [2] and 103 % of control under setting [3].

Regarding `O=C(Nc1ccc([N+](=O)[O-])cc1)OCC#CC#CCOC(=O)Nc1ccc([N+](=O)[O-])cc1`, the T/C is 94 % of control (endpoint: mean survival time, dose: 100.0 mg/kg/injection, schedule: Q04DX003 (ip), vehicle: Klucel (hydroxypropylcellulose) (HPC)) and 94 % of control (endpoint: mean survival time, dose: 200.0 mg/kg/injection, schedule: Q04DX003 (ip), vehicle: Klucel (hydroxypropylcellulose) (HPC)).

For the compound `CC(C)c1ccc(N=Nc2ccc(C(C)C)cc2)cc1`, the T/C by setting is: under setting [1], 101 % of control; under setting [2], 97 % of control; under setting [3], 93 % of control.

Take `COc1cc(-c2[nH]c(=S)[nH]c(=O)c2CCO)cc(OC)c1OC`: the T/C by setting is: under setting [10], 98 % of control; under setting [12], 98 % of control; under setting [18], 91 % of control.

On to `Cc1ccc2c(c1)C(=O)/C(=C/c1ccccn1)CCO2`, for which the T/C reads like this: under setting [15], 92 % of control; under setting [16], 88 % of control; under setting [17], 92 % of control.

As to `O=c1scc(-c2ccc(Br)cc2)s1`, the T/C reads like this: under setting [13], 93 % of control; under setting [14], 100 % of control.

For `CCNC(C)(C)C(SS)c1ccc(C(F)(F)F)cc1` (stereo unspecified), the T/C under setting [10] was 88 % of control, the T/C under setting [12] was 90 % of control and the T/C under setting [18] is 93 % of control.
